# US7947739B2, “Tranexamic acid formulations” (Ferring B.V., priority 2004, dated 2011)
# Read-outs that look alike come from different tables or passages of the source.
# Key:
# [1] = Published pharmacokinetics of tranexamic acid (Pilbrant et al.; Cyklokapron NDA); type: in vivo; conditions: human, serum, single 1.3 g oral dose, fasting, approx. 65% of 2 g dose published data
# Protocol: By comparison, the in vivo absorption profile observed with the European immediate-release formulation is slow and very gradual over 3 hours. Specifically, tranexamic acid serum concentrations are 9, 41, 73, 88 percent (with food), and 22, 63, 85, and 98 percent (fasting) of maximal absorption at 0.5, 1, 1.5 and 2 hours after a 2 g oral dose, respectively.
# Tranexamic acid is minimally bound (approximately 3%) to plasma proteins (mainly plasminogen) at “typical” therapeutic plasma concentrations of approximately 5-15 mg/L. The main route of elimination of tranexamic acid is renal glomerular filtration. After oral administration of tranexamic acid (250 or 500 mg) to healthy adults, between 40-70% of the administered dose is excreted unchanged in the urine within 24 hours. After IV administration (1 g) 30% of the dose is excreted unchanged in the urine within one hour, 45-55% within 2-3 hours and 90% within 24 hours.
# For this reason, the concentration-time profile of tranexamic acid was estimated by simulating the data over 36 hours, after oral administration of a 1.3 g dose under fasting conditions, using NONMEM. Based on the simulation results, it would be appropriate to collect blood samples until 36 hours in order to characterize the AUC, Cmax, tmax, t½ and F.
# women with menorrhagia [2] = assay: Example 8: 3-cycle study, Menorrhagia Instrument measures (MIQ Q1-Q6), responders, sanitary products, large stains; type: in vivo, human
# women with menorrhagia [3] = assay: Example 9: 6-cycle study, Menorrhagia Instrument measures, responders, sanitary products, large stains; type: in vivo, human
# heavy menstrual bleeding = conditions: cited from earlier work
# women with menorrhagia [4] = assay: Example 9: 6-cycle placebo-controlled study, menstrual blood loss (MBL) by alkaline hematin test; type: in vivo, human; conditions: 3.9 g/day
# [5] = cited from earlier work; for dose excreted unchanged in the urine: IV 1 g
# women with menorrhagia [6] = assay: Example 8: 3-cycle placebo-controlled study, menstrual blood loss (MBL) by alkaline hematin test, also stratified by fibroids; type: in vivo, human; conditions: 3 cycles
# [7] = Example 6: single dose followed by multiple doses study, noncompartmental plasma pharmacokinetics, linearity, steady state; type: in vivo, human; conditions: 1.3 g every 8 hours
# Protocol: After an overnight fast, subjects received a single oral dose of tranexamic acid (1.3 g) on Day 1. Blood samples were taken before dosing and up to 36 hours post-dose. Subjects received another single oral dose of tranexamic acid (1.3 g) on the evening of Day 2, and 3 times a day (every 8 hours) starting on the morning of Day 3 until the last dose on the morning of Day 7. Blood samples were taken before the 6th, 9th, 12th and 15th dose (the last dose) for the determination of Cmin, and up to 8 hours after the last dose, for the determination of drug concentration at steady-state. Subjects were housed from at least 10 hours before the 1st dose on Day 1 until after the 8-hour blood draw following the 15th dose (on Day 7). […]
# Calculations for plasma tranexamic acid were calculated by noncompartmental methods using the following pharmacokinetic parameters in Tables 15 and 16:
# Descriptive statistics including arithmetic means, standard deviations and coefficients of variation were calculated on the individual concentration and pharmacokinetic data. Additionally, geometric means were calculated for the parameters AUC0-t, AUCinf, and Cmax for Day 1 and AUCτ, Cmax and Cmin for Day 7. […]
# The ratio of LSM was calculated using the exponentiation of the Day LSM from the analysis on the In-transformed response. The ratio was expressed as a percentage relative to AUCinf (Day 1). […]
# [8] = Example 6: compartmental pharmacokinetic analysis; type: in vivo; conditions: female, human, plasma, oral, 1.3 g; 295 mL/min×0.449; read-out: systemic clearance (CL)
# Protocol: Compartmental analysis was performed on tranexamic acid data following single and multiple oral administrations of the modified release (MR) tablet formulation. Multiple compartmental models were constructed and their ability to fit plasma concentrations of tranexamic acid were evaluated using a standard two-stage (STS) approach with ADAPT-II (maximum likelihood analysis). The discrimination process was performed by computing the Akaike Information Criterion Test (AIC), the minimum value of the objective function (OBJ) and by looking at pertinent graphical representations of goodness of fit (e.g. fitted and observed concentrations versus time).
# The final analysis was performed using an iterative two-stage approach with the IT2S® software. This software uses a population methodology which allows one to provide robust PK parameter estimates on an individual subject and population basis. All relevant pharmacokinetic parameters were calculated and reported. Concentrations were modeled using a weighting procedure of Wj=1/Sj^2 where the variance σj^2 was calculated for each observation using the equation σj^2=(a+b*Yj)^2 where a and b are the intercept and slope of each variance model. […] The analysis included the quantitative estimation of population PK parameters and interindividual variability of tranexamic acid in plasma.
# [9] = 3.9 g/day compared with placebo
structure (smiles),measurement,setting,value
"NC[C@H]1CC[C@H](C(=O)O)CC1 [tranexamic acid, trans-4-(aminomethyl)cyclohexanecarboxylic acid]",AUC(0-t),[1]; read-out: expected mean AUC0-6,~40000 ng·h/mL
same,Cmax,[1]; read-out: expected mean Cmax,~10000 ng/mL
same,"mean LPA score, change from baseline",women with menorrhagia [2]; 3-cycle study,Significant treatment-related reductions
same,"mean LSLA score, change from baseline",women with menorrhagia [2]; 3-cycle study,Significant treatment-related reductions
same,LWH (MI measure 2),women with menorrhagia [2]; [9],significantly reduced
same,subjects' assessments of MBL (MI item 1),women with menorrhagia [2]; [9],significantly reduced
same,proportion of responders,"women with menorrhagia [2]; 3.9 g/day, first menstrual cycle, reduction in MBL and meaningful improvement (MI 6c)",71.0%
same,LWH (MI measure #2),women with menorrhagia [3]; [9],significantly reduced
same,subjects' assessments of MBL (MI measure #1),women with menorrhagia [3]; [9],significantly reduced
same,"mean LPA score, change from baseline",women with menorrhagia [3]; 6-cycle study,significant treatment-related reductions
same,"mean LSLA score, change from baseline",women with menorrhagia [3]; 6-cycle study,significant treatment-related reductions
same,women satisfied with the treatment,"heavy menstrual bleeding; Winkler open label uncontrolled usage study, 849 patients",80%
same,reduction of heavy menstrual bleeding,heavy menstrual bleeding; research from European countries,40-50%
same,mean reduction in MBL from baseline,"women with menorrhagia [4]; […], 6-cycle study",69.6 mL
same,percent MBL reduction compared with baseline,"women with menorrhagia [4]; […], 6-cycle study",40.4%
same,regression slope of response over the six menstrual cycles,women with menorrhagia [4]; p=0.615,−0.90 mL/cycle
same,therapeutic antifibrinolytic range (therapeutic window),[5]; Cyklokapron NDA 19-280,5 to 15 µg/mL
same,dose excreted unchanged in the urine,[5]; within 2-3 hours,45-55%
same,dose excreted unchanged in the urine,[5]; within 24 hours,90%
same,dose excreted unchanged in the urine,[5]; within one hour,30%
same,urinary recovery,"[5]; Pilbrant, et al.",exceeded 95 % of the dose
same,gamma elimination half-life,[5]; after IV administration,approximately 7 hours
same,bound to plasma proteins,[5]; at therapeutic plasma concentrations of approximately 5-15 mg/L,approximately 3%
same,beta elimination half-life,[5]; in vivo,2 h
same,excreted unchanged drug in the urine,[5]; in vivo,more than 95%
same,typical therapeutic plasma concentrations,[5]; in vivo,5 to 15 mg/L
same,administered dose excreted unchanged in the urine,"[5]; oral 250 or 500 mg, healthy adults, within 24 hours",40-70%
same,mean reduction in MBL from baseline,women with menorrhagia [6]; 1.95 g/day,46.5 mL
same,percent MBL reduction compared with baseline,women with menorrhagia [6]; 1.95 g/day,26.1%
same,mean reduction in MBL from baseline,women with menorrhagia [6]; 3.9 g/day,65.3 mL
same,percent MBL reduction compared with baseline,women with menorrhagia [6]; 3.9 g/day,38.6%
same,difference between the LSM of predose Day 6 and 7,[7],less than 2%
same,"largest difference in predose plasma concentrations, LSM of predose Day 5 compared to Day 6 and 7",[7],less than 10%
same,clearance,[8],123 mL/min
